Here are results for six compounds from patent US20100022551A1, “TRIMETAZIDINE FOR USE IN THE TREATMENT OF FIBROMYALGIA SYNDROME AND RELATED CONDITIONS” (Mintals Limited Consulco, Consulco House, priority 2006, published 2010).

Structures are written as SMILES. Where “and” joins values, the source holds several entries; their conditions need not be identical. Equal values may be shown once. Entries after “also recorded” stand apart in the source; their conditions may differ.

The test system of data set [1] is Human Subject Diagnosed with Fibromyalgia. The data set can be described thus: Patient history of prior treatment of the fibromyalgia subjects. The settings on record: for pain relief, prescription analgesics / side effects, prescription analgesics: Examples 1-3, codeine at high dose; for pain relief, OTC analgesics: Examples 1-3, codeine at low dose.
Text: (§1) Patient History of Prior Treatment: A patient history was taken. Prior treatments targeting pain relief were as follows.
Prior treatments targeting other symptoms included the following. The subject had taken tegaserod for irritable bowel syndrome. Additional prior therapies included sertraline for depression, and zolpidem for insomnia. The subject has also taken proclorperazine for dizziness.
Prior treatments targeting other symptoms included the following. The subject had taken tegaserod for irritable bowel syndrome. Additional prior therapies included sertraline for depression, and zolpidem for insomnia.
as §1
Prior treatments targeting other symptoms included the following. The subject had taken tegaserod for irritable bowel syndrome. Additional prior therapies included zolpidem, midazolam, zopiclone, and chlorpheniramine for insomnia.

A further data set deals with pyruvate dehydrogenase. The settings on record: Kantor et al., Circ. Res. 2000; cited from earlier work.
Data set [2] addresses long chain 3-ketoacyl CoA thiolase (Rattus norvegicus, UniProt Q60587). The following applies: Kantor et al., Circ. Res. 2000; cited from earlier work.
Data set [3] relates to long-chain fatty acid oxidation. The settings on record: Kantor et al., Circ. Res. 2000; cited from earlier work.
For another data set, the system named is glucose oxidation. The settings on record: Kantor et al., Circ. Res. 2000; cited from earlier work.
Data set [4] relates to Human Subject Diagnosed with Fibromyalgia. The data set can be described thus: Treatment of human subjects diagnosed with fibromyalgia with trimetazidine (Vastarel MR 35 mg orally, twice daily). The data set is classed as in vivo. The following applies: for reduction in the widespread pain: subject-reported. The protocol: A person presented with long-standing complaints (15 years) of widespread pain—headaches, upper and lower back pain, neck pain, elbow and knee pain bilaterally, calf pain bilaterally and jaw pain. General non-specific symptoms were fatigue, symptoms of irritable bowel syndrome (constipation-type), insomnia, cognitive and memory impairment, morning stiffness, dizziness, irritability and depression.
Treatment Regime: The subject was administered trimetazidine (modified release formulation, Vastarel® MR), 35 mg orally, twice daily, originally for treatment of their cardiac condition.
A person presented with long-standing complaints (10 years) of widespread pain—headaches, upper and lower back pain, neck pain, hip pain bilaterally, knee pain bilaterally and jaw pain. General non-specific symptoms were fatigue, symptoms of irritable bowel syndrome (constipation-type), insomnia, cognitive and memory impairment, morning stiffness, and depression.
Treatment Regime: The subject was administered trimetazidine (modified release formulation, Vastarel® MR), 35 mg orally, twice daily.
A person presented with a 5 year history of complaints of widespread pain headaches, upper and lower back pain, neck pain, hip pain bilaterally and knee pain bilaterally. General non-specific symptoms were fatigue, symptoms of irritable bowel syndrome (constipation-type), insomnia, morning stiffness and emotional liability.
The following is a synopsis of the clinical response of each of eight (8) patients diagnosed with FMS, each of whom received treatment with trimetazidine MR (Vastarel® MR), 35 mg orally, twice daily, for a period of at least four (4) weeks

Where [5] appears, read: Example 1, after six (6) months of continuous use.
Setting [6] is: Example 4, individual FMS patients, Short Term i.e. within 72 hours.
[7] abbreviates: Example 4, individual patients, Medium Term i.e. over four (4) weeks.
[8] abbreviates: Example 4, individual patients, within 72 hours.
The mark [9] stands for this setting: Example 4, person five, within 72 hours.
[10] abbreviates: Example 4, person four, within 72 hours.
The mark [11] stands for this setting: Example 4, person one, within 72 hours.
[12] abbreviates: Examples 2 and 3, after four (4) months of continuous use.
[13] abbreviates: Examples 2 and 3, within 24 hours.

Chain of long chain 3-ketoacyl CoA thiolase (Q60587 35-475): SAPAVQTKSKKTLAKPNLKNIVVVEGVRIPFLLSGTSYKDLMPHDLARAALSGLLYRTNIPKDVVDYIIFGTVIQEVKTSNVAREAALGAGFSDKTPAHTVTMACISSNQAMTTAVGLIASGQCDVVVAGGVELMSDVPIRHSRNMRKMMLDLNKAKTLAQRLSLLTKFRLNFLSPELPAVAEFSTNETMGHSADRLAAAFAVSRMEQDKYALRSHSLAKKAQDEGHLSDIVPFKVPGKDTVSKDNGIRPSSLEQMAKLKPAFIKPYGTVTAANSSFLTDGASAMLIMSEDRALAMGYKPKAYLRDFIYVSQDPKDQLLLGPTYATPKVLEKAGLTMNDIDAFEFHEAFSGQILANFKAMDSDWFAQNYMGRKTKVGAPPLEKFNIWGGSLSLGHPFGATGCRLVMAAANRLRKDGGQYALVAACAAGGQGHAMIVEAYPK
Chain of long chain 3-ketoacyl CoA thiolase (Q64428 37-763 partner): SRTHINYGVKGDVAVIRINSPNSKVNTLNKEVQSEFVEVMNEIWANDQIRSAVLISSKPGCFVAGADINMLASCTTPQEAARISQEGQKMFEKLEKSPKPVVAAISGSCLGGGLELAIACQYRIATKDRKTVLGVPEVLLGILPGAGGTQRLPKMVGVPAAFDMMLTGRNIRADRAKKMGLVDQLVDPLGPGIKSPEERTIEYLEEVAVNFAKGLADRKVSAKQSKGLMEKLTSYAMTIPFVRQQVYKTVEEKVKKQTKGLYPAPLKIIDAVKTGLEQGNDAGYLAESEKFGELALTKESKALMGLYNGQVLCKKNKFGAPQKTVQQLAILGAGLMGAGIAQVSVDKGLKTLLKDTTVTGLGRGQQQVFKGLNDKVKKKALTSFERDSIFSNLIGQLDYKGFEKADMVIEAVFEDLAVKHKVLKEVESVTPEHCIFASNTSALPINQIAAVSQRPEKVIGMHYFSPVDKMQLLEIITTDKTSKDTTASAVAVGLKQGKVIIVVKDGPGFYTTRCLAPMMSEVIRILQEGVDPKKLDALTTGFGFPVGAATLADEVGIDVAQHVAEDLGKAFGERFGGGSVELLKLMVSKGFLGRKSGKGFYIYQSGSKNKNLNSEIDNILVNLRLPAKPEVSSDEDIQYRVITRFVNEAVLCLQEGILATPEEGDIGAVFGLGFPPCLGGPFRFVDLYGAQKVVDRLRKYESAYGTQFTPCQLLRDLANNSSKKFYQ

Consider `COc1ccc2c3c1O[C@H]1[C@@H](O)C=C[C@H]4[C@@H](C2)N(C)CC[C@@]341` [codeine], for which, in data set [1], the “pain relief, prescription analgesics” value is “mild to moderate and very temporary relief”; the “side effects, prescription analgesics” value was “frequently accompanied by unpleasant side effects”; the “pain relief, OTC analgesics” value was “no pain relief whatsoever; also recorded: negligible pain relief”.

Take `CCN(CC)CC(=O)Nc1c(C)cccc1C` [lidocaine]: the “localized pain relief, trigger point injections” value in data set [1] (Examples 1 and 2) is “the best localized pain relief”.

Regarding `CCOC(=O)C1(c2ccccc2)CCN(C)CC1` [meperidine], in data set [1], the “pain relief, prescription analgesics” value is “mild to moderate and very temporary relief”; the “side effects, prescription analgesics” value is “frequently accompanied by unpleasant side effects”.

`CC(=O)Nc1ccc(O)cc1` [paracetamol]: the “pain relief, OTC analgesics” value in data set [1] is “no pain relief whatsoever; also recorded: negligible pain relief”.

Consider `COc1cccc(C2(O)CCCCC2CN(C)C)c1` (centres unmarked) [tramadol], for which, in data set [1], the “pain relief, prescription analgesics” value was “mild to moderate and very temporary relief”; the “side effects, prescription analgesics” value is recorded as “frequently accompanied by unpleasant side effects”.

`COc1ccc(CN2CCNCC2)c(OC)c1OC` [trimetazidine, 1-(2,3,4-trimethyloxybenzyl)piperazine]: the “levels of pyruvate dehydrogenase” value in the data set with pyruvate dehydrogenase was “increased levels”. In addition, in data set [2], the “activity of long chain 3-ketoacyl CoA thiolase” value was “decreased activity”. Moreover, in data set [3], the “long-chain fatty acid oxidation” value is given as “inhibits”. For the same compound, the glucose oxidation result in the data set with glucose oxidation is recorded as “stimulates”. Moreover, the “time at which benefits were first noticed after commencing therapy” value in data set [4] (Example 1, person, 35 mg orally twice daily) is not above 24 h. The “improvement in all symptoms and signs of fibromyalgia” value in data set [4] (Example 1, person, 35 mg orally twice daily, within 72 hours of starting treatment) is “vast improvement”. For the same compound, in data set [4] (Example 1, person, within 72 hours), the “reduction in the widespread pain” value worked out at 90%. Further, in data set [4] (setting [5]), the “episodes of pain at trigger points at follow-up” value was “infrequent” and the “quality of life at follow-up” value is “same marked improvement”. Moreover, in data set [4] (Example 1, within 72 hours), the clarity of thoughts result was “markedly increased”, the energy levels result is “very significantly increased”, the level of irritability entry is “markedly reduced” and the mood entry is “very improved”. In addition, in data set [4] (Example 1, within 72 hours), the “regularity of bowel habits” value is “markedly improved”; the residual pain entry was “minimal residual pain reported at the left medial knee”; the “short and long term memory” value is recorded as “improvement”; the sleep patterns entry is “very significantly improved”. Further, in data set [4] (Example 2, within 24 hours), the clarity of thoughts entry is “markedly increased”; the “short and long term memory” value is recorded as “improvement”. Also, in data set [4] (setting [6]), the “reduction in widespread pain” value is recorded as 90% reduction in; the “reduction in widespread pain and trigger point pain” value was 90% reduction in. Moreover, in data set [4] (Example 4, individual patients), the “affect (EXAMINATION FINDINGS; patient: affect and energy levels)” value was “markedly improved”; the “resolution of trigger point tenderness (EXAMINATION FINDINGS)” value was “Sustained”. Moreover, in data set [4] (setting [7]), the Residual symptoms entry is recorded as “include mild acid; also recorded: infrequent headaches; also recorded: insomnia; also recorded: episodes of joint”, the sense of well-being result is reported as “increased sense of” and the specific complaints entry is reported as “symptoms with no”. For the same compound, in data set [4] (setting [8]), the Energetic feeling entry is recorded as “Energetic feeling”; the “Nausea (patient: Nausea and Vomiting)” value is listed as “Absence of Nausea”; the “alertness and clarity of thinking” value is “Increased alertness”; the dizziness/dizzy spells entry is on record as “Infrequent dizzy; also recorded: Absence of”. Further, in data set [4] (setting [8]), the “improved mood and concentration” value is “Significantly”; the “improved mood and memory” value was “Significantly”; the “reduction in feeling of generalized tightness and stiffness of muscles” value was 90% reduction in (2×) and 90% reduction of; the sleep result was “Consistent restful”. The “improved energy levels (EXAMINATION FINDINGS)” value in data set [4] (Example 4, person five) is “Markedly”. Also, in data set [4] (setting [9]), the reduction in irritability is listed as 90% reduction in and the “reduction in symptoms of Irritable Bowel Syndrome” value worked out at 90% reduction in. In data set [4] (setting [10]), the Memory result is on record as “Improved Memory” and the Nervousness result is listed as “No Nervousness”. In addition, in data set [4] (Example 4, person one), the “improvement in physical appearance (EXAMINATION FINDINGS)” value is recorded as “obvious marked”. In data set [4] (Example 4, person one, after four (4) weeks of daily use), the “increase in energy levels” value was “particular a sustained”. In data set [4] (setting [11]), the “Chest Pain” value was “Absence of Chest” and the “symptoms of Irritable Bowel Syndrome” value was “Markedly reduced”. Besides, the “sustained improvement of symptoms” value in data set [4] (Example 4, person three, after four (4) months of daily use) is 95% sustained. The “reduction in IBS and Acid Reflux Symptoms” value in data set [4] (Example 4, person three, within 72 hours) came out at 90% reduction in. Besides, the “sustained improvement of symptoms” value in data set [4] (Example 4, person two, after seven (7) weeks of daily use) is given as “dramatic 95%”. Moreover, the “reduction in severity of Pre-Menstrual Cramps” value in data set [4] (Example 4, person two, within 72 hours) is recorded as 70% reduction in. Also, the “sustained improvement of all symptoms” value in data set [4] (Example 4, person, after five (5) weeks of daily use) is recorded as 95% sustained. Besides, the “sustained improvement of symptoms” value in data set [4] (Example 4, person, after six (6) weeks of daily use) is “(95%) sustained”. For the same compound, the “sustained improvement of symptoms” value in data set [4] (Example 4, after four (4) weeks of daily use) is 95% sustained and 90% sustained. In data set [4] (Examples 2 and 3, single female patients, 35 mg orally twice daily, within 24 hours of starting treatment), the “improvement in all symptoms and signs of fibromyalgia” value is given as “vast improvement”. Also, the “reduction in the widespread pain” value in data set [4] (Examples 2 and 3, single female patients, within 24 hours) is listed as 95%. Besides, in data set [4] (setting [12]), the “quality of life at follow-up” value was “same marked improvement” and the relapse of symptoms entry was “no relapse”. Also, in data set [4] (setting [13]), the energy levels result is listed as “very significantly increased”, the mood result is on record as “very improved”, the “regularity of bowel habits” value is given as “markedly improved” and the residual pain entry is on record as “minimal residual pain reported at the left hip; also recorded: residual mild headache”. In addition, in data set [4] (setting [13]), the sleep patterns result is listed as “very significantly improved”. The “reduction in widespread pain” value in data set [4] (FMS patients, course of treatment of at least four weeks) was “remarkable and measurable reduction”. The “sustained or improved relief of widespread pain at follow-up” value in data set [4] (all patients, follow-up at either four months or four weeks of treatment) was 90-95%. The “improvement of minor symptoms” value in data set [4] (all patients, within 72 hours) is reported as “significant improvement”. Besides, the “improvement in widespread pain” value in data set [4] (eleven human subjects, each) is listed as “remarkable improvement”. In addition, in data set [4] (eleven human subjects, each, within 72 hours of commencement of treatment), the “reduction in widespread pain, and where applicable, tender point pain” value is listed as “marked reduction”. Besides, the “reduction in widespread pain, on average” value in data set [4] (eleven human subjects, within 72 hours of commencing treatment) worked out at 90%.
